Molecules are shown by their SMILES.

The target of data set [1] is Metabotropic glutamate receptor 5 (Rattus norvegicus) (UniProt P31424). Kind of data set: Displacement of [3H]-M-MPEP from rat cerebrocortical mGluR5 receptor at 1 uM. For orientation: In a radioligand displacement assay an active substance lowers the binding of a labelled ligand.
Data set [2] concerns Liver microsome. The data set is described as follows: Intrinsic clearance in human liver microsomes measured per gram of tissue at 2.5 uM. The class given is ADME. On the technique in general: Microsomes from liver hold many membrane-bound enzymes, among them those of drug oxidation.
Data set [3] concerns Liver microsome. Kind of data set: Intrinsic clearance in Wistar rat liver microsomes measured per gram of tissue at 2.5 uM. The class given is ADME.
In data set [4] the target is T1, Metabotropic glutamate receptor 5 (Rattus norvegicus, UniProt P31424). The data set is described as follows: Negative allosteric modulation of mGlu5 receptor in primary E17 rat embryo neuron assessed as ca2+ level by fluo-4/AM assay.
T1 sequence (P31424 whole entry): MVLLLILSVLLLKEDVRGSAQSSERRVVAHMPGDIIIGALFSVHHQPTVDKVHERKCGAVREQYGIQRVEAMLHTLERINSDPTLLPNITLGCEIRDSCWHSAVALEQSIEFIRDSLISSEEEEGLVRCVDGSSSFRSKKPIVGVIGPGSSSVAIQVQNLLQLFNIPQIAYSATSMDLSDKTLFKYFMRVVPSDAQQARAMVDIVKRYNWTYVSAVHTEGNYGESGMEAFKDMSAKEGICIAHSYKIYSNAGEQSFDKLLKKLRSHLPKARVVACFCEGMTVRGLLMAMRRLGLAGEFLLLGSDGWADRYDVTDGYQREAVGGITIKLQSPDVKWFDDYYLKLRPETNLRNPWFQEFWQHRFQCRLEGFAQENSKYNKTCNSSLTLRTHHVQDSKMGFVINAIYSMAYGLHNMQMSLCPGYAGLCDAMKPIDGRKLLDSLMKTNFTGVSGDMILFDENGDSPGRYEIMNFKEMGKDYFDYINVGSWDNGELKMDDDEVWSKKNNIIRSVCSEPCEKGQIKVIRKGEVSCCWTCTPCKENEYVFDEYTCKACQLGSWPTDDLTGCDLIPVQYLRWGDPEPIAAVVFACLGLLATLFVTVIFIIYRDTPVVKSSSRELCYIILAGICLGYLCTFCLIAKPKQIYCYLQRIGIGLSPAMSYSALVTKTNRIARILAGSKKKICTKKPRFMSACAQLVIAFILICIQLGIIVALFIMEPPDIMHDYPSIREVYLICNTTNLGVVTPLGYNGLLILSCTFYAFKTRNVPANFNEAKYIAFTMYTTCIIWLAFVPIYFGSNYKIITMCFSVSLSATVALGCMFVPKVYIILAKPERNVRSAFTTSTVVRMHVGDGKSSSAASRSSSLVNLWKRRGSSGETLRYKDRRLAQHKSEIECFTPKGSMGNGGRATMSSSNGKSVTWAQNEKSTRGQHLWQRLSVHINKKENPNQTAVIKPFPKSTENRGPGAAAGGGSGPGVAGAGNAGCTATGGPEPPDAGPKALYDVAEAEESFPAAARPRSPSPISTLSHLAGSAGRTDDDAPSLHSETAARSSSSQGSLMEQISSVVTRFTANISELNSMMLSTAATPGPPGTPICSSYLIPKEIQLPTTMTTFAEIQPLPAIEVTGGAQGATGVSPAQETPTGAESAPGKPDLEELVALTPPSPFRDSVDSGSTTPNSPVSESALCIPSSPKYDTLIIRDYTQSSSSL
The target of data set [5] is T1, Metabotropic glutamate receptor 5. The data set is described as follows: Displacement of [3H]-M-MPEP from rat cerebrocortical mGluR5 receptor.
Data set [6] relates to Rattus norvegicus. The data set is described as follows: Anxiolytic effect in po dosed Wistar male rat assessed as increase in number of accepted shocks by vogel punished drinking test. The class given is functional. Conditions: read-out: MED.
Data set [7] deals with Rattus norvegicus. Kind of data set: Anxiolytic effect in ip dosed Wistar male rat assessed as increase in number of accepted shocks by vogel punished drinking test. Format: functional.

Metabotropic glutamate receptor 5 (Rattus norvegicus), sequence (P31424 21-1203 limits assumed): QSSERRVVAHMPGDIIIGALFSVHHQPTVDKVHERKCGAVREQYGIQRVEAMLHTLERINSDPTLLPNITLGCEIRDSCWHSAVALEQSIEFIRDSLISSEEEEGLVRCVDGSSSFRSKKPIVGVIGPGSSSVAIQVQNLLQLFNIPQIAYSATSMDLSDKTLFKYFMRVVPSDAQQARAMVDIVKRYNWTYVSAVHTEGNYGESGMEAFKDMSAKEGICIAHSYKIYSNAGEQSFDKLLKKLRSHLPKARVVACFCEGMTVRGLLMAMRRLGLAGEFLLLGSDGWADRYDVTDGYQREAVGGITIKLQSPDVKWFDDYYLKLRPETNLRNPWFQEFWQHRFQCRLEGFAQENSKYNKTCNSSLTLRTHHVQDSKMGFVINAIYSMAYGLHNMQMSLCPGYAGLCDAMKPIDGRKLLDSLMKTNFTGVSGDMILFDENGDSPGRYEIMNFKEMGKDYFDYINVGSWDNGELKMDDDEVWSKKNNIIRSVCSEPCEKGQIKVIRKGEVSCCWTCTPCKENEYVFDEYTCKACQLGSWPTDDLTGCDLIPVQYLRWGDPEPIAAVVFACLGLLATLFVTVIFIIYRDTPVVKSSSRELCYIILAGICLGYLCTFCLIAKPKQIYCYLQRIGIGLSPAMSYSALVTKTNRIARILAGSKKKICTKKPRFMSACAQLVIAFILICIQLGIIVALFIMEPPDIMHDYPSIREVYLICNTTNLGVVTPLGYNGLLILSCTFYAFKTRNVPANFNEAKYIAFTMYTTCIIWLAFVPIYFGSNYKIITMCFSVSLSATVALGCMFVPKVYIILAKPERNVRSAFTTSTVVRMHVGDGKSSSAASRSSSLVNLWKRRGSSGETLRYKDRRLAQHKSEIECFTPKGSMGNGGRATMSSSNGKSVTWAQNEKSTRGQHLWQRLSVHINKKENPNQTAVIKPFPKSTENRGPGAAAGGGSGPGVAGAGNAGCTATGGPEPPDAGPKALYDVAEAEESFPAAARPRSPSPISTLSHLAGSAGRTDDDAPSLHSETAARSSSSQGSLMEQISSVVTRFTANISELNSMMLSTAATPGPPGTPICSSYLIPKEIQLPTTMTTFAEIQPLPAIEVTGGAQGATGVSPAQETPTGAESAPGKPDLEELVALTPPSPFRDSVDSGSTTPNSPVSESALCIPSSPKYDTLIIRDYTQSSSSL

Broadly, the inhibition is the percentage by which the read-out fell short of the control. Consider `Cc1cc(C)c(S(=O)(=O)c2sc3ncccc3c2-c2ccc(Cl)cc2)c(C)c1`, for which, in data set [1], the inhibition turned out to be 0%.
As to `CC(=O)Nc1ccc(S(=O)(=O)c2sc3ncccc3c2-c2ccc(Cl)cc2)cc1`, the inhibition in data set [1] is 6%.
`O=S(=O)(NCc1ccc(Cl)cc1)c1sc2ncccc2c1-c1ccc(Cl)cc1`: the inhibition in data set [1] is 30%.
For `N#Cc1cccc(S(=O)(=O)c2sc3nc(Cl)ccc3c2-c2ccc(Cl)cc2)c1`, the figures for the CLH in data set [2] and in data set [3] were 1.4 mL/min/g and 3.6 mL/min/g, respectively. This compound returned an inhibition in data set [1] of 19%.
Usually IC50 stands for the midpoint of a concentration-inhibition curve. Broadly, the Ki is a dissociation constant, usually derived from enzyme kinetics or from competition with a known ligand. The low end stands for a stronger hold on the target, the high end for a looser hold on the target. With `N#Cc1cc(F)cc(S(=O)(=O)c2sc3ncc(N)cc3c2-c2ccccc2F)c1`, the IC50 in data set [4] worked out at 1.6 nM. In data set [5], this compound showed a Ki of 1.5 nM. Also, the CLH in data set [2] was 1.1 mL/min/g; in data set [3], 2.5 mL/min/g.
The like results for `Nc1cnc2sc(S(=O)(=O)c3ccc(Cl)cc3)c(-c3ccc(Cl)cc3)c2c1` were, in that order, 77 nM, 19.1 nM, 1.6 mL/min/g and 0.7 mL/min/g.
The matching figures for `N#Cc1cc(F)cc(S(=O)(=O)c2sc3ncc(N)cc3c2-c2ccncc2F)c1`: 44 nM, 44 nM, 0.3 mL/min/g and 0.5 mL/min/g.
In the case of `COc1ccc2c(-c3ccc(Cl)cc3)c(S(=O)(=O)c3cccc(C#N)c3)sc2n1`, the CLH worked out at 0.3 mL/min/g in data set [2] and 4.2 mL/min/g in data set [3]. For the same compound, in data set [1], the inhibition was determined as 50%.
In data set [1], `CCCCS(=O)(=O)c1sc2ncccc2c1-c1ccc(Cl)cc1` gave an inhibition of 30%.
With `N#Cc1cc(F)cc(S(=O)(=O)c2sc3ncccc3c2-c2cccc(Cl)c2)c1`, in data set [4], the IC50 is 11 nM. In data set [5], this compound came in with an inhibition constant (Ki) of 8.9 nM. The CLH in data set [2] stood at 2.6 mL/min/g; in data set [3] it was 2 mL/min/g.
Take `N#Cc1cc(F)cc(S(=O)(=O)c2sc3ncc(N)cc3c2-c2cccc(F)c2)c1`: the half-maximal inhibitory concentration (IC50) in data set [4] was 5.5 nM. Moreover, the CLH worked out at 0.9 mL/min/g in data set [2] and 1.2 mL/min/g in data set [3]. Also, the minimal effective dose in data set [6] stood at 3 mg/kg.
In the case of `N#Cc1cccc(S(=O)(=O)c2sc3ncccc3c2-c2cccc(Cl)c2)c1`, in data set [4], the IC50 came to 45 nM. The Ki in data set [5] stood at 14.3 nM. In addition, the CLH in data set [2] turned out to be 2.6 mL/min/g; in data set [3] it was 10.8 mL/min/g.
The matching figures for `N#Cc1cc(F)cc(S(=O)(=O)c2sc3ncc(N)cc3c2-c2cnccc2Cl)c1`: 34 nM, 9.3 nM, 1.1 mL/min/g and 1 mL/min/g.
The like results for `N#Cc1cc(F)cc(S(=O)(=O)c2sc3ncc(N)cc3c2-c2ccc(F)c(F)c2)c1` were, in that order, 9 nM, 2.7 nM, 0.9 mL/min/g and 1 mL/min/g.
The matching figures for `N#Cc1cc(F)cc(S(=O)(=O)c2sc3ncccc3c2-c2ccc(Cl)cc2)c1`: 18 nM, 2 nM, 1.4 mL/min/g and 3.4 mL/min/g.
For the compound `O=S(=O)(c1ccc(Cl)cc1)c1sc2ncccc2c1-c1ccc(F)cc1`, in data set [4], the IC50 stood at 92 nM. In data set [5], this compound had a Ki of 22 nM. Also, the CLH in data set [2] is 3.4 mL/min/g; in data set [3], 13.6 mL/min/g.
`O=S(=O)(c1ccc(Cl)cc1)c1sc2ncccc2c1Oc1ccc(Cl)cc1`: the CLH in data set [2] was 3 mL/min/g; in data set [3], 9.3 mL/min/g. For the same compound, the inhibition in data set [1] turned out to be 11%.
`O=S(=O)(c1cccs1)c1sc2ncccc2c1-c1ccc(Cl)cc1` returned an inhibition in data set [1] of 34%.
Take `O=S(=O)(c1ccc(Cl)cc1)c1sc2ncccc2c1-c1ccccc1Cl`: in data set [4], the IC50 was determined as 172 nM. This compound also gave a Ki in data set [5] of 64 nM. Further, the CLH in data set [2] was found to be 2.8 mL/min/g; in data set [3], 3.7 mL/min/g.
The matching figures for `N#Cc1cc(F)cc(S(=O)(=O)c2sc3ncc(N)cc3c2-c2ccc(Cl)cc2)c1`: 30 nM, 2.2 nM, 1.3 mL/min/g and 1 mL/min/g.
The matching figures for `Nc1cnc2sc(S(=O)(=O)c3ccc(Cl)cc3)c(-c3cccc(F)c3)c2c1`: 127 nM, 37 nM, 1.7 mL/min/g and 1.8 mL/min/g.
In data set [1], `O=S(=O)(c1sc2ncccc2c1-c1ccc(Cl)cc1)C1CCCCC1` registered an inhibition of 14%.
Consider `O=S(=O)(c1ccccc1Cl)c1sc2ncccc2c1-c1ccc(Cl)cc1`, for which the inhibition in data set [1] was determined as 32%.
As to `N#Cc1cc(F)cc(S(=O)(=O)c2sc3ncccc3c2-c2cnccc2Cl)c1`, in data set [4], the IC50 worked out at 34 nM. Moreover, in data set [5], the Ki was 9.3 nM. For the same compound, the CLH in data set [2] is 1.1 mL/min/g; in data set [3], 1 mL/min/g.
Turning to `O=S(=O)(Nc1ccc(Cl)cc1)c1sc2ncccc2c1-c1ccc(Cl)cc1`, the inhibition in data set [1] stood at 20%.
The compound `Cc1noc(C)c1S(=O)(=O)c1sc2ncccc2c1-c1ccc(Cl)cc1` yielded an inhibition in data set [1] of 0%.
As to `O=S(=O)(c1ccc(Cl)cc1)c1sc2nccc(O)c2c1-c1ccc(Cl)cc1`, the CLH is 0.01 mL/min/g in data set [2] and 0.7 mL/min/g in data set [3]. Besides, the inhibition in data set [1] worked out at 34%.
As to `O=S(=O)(c1ccc(Cl)cc1)c1sc2nc(Cl)ccc2c1-c1ccc(Cl)cc1`, the IC50 in data set [4] turned out to be 1030 nM. In data set [5], this compound showed a Ki of 93 nM. In addition, the figures for the CLH in data set [2] and in data set [3] were 0.01 mL/min/g and 3.4 mL/min/g, respectively.
On to `O=S(=O)(c1ccc(Cl)cc1)c1sc2ncc(Cl)cc2c1-c1ccc(Cl)cc1`, for which the IC50 in data set [4] was 363 nM. Besides, the Ki in data set [5] turned out to be 69 nM. In addition, the values for the CLH in data set [2] and in data set [3] were 0.01 mL/min/g and 2.8 mL/min/g, respectively.
As for `CN(C)c1ccc2c(-c3ccc(Cl)cc3)c(S(=O)(=O)c3ccc(Cl)cc3)sc2n1`, the CLH was determined as 1.4 mL/min/g in data set [2] and 3.7 mL/min/g in data set [3]. The same compound had an inhibition in data set [1] of 2%.
Regarding `N#Cc1cccc(-c2c(S(=O)(=O)c3cccc(C#N)c3)sc3ncccc23)c1`, the 50% inhibitory concentration (IC50) in data set [4] was determined as 105 nM. In data set [5], the inhibition constant (Ki) was found to be 85 nM. Further, the CLH in data set [2] came out at 1.1 mL/min/g; in data set [3], 3.9 mL/min/g.
On to `COc1ccnc2sc(S(=O)(=O)c3ccc(Cl)cc3)c(-c3ccc(Cl)cc3)c12`, for which the CLH was 1 mL/min/g in data set [2] and 6.5 mL/min/g in data set [3]. The inhibition in data set [1] worked out at 20%.
Turning to `O=S(=O)(c1ccc(Cl)cc1)c1sc2ncccc2c1-c1ccccc1F`, the IC50 in data set [4] stood at 135 nM. Also, the Ki in data set [5] is 51 nM. The CLH turned out to be 2.4 mL/min/g in data set [2] and 4.1 mL/min/g in data set [3].
Turning to `O=S(=O)(c1ccc(Cl)cc1)c1sc2ncccc2c1-c1ccc(Cl)cc1`, the CLH was 1.6 mL/min/g in data set [2] and 4.2 mL/min/g in data set [3]. Further, in data set [7], the Activity result is “Dose-dependent effect”. For the same compound, in data set [7] (read-out: MED), the minimal effective dose was 40 mg/kg.
Regarding `Cc1nc(C)c(S(=O)(=O)c2sc3ncccc3c2-c2ccc(Cl)cc2)s1`, the inhibition in data set [1] stood at 35%.
On to `N#Cc1ccc(-c2c(S(=O)(=O)c3cccc(C#N)c3)sc3ncccc23)cc1`, for which the figures for the CLH in data set [2] and in data set [3] were 0.1 mL/min/g and 2.9 mL/min/g, respectively. Further, in data set [1], the inhibition is 62%.
`N#Cc1cc(F)cc(S(=O)(=O)c2sc3ncc(N)cc3c2-c2ccc(F)cc2)c1`: the IC50 in data set [4] was found to be 6.4 nM. In data set [5], the Ki amounted to 2.8 nM. The figures for the CLH in data set [2] and in data set [3] were 0.8 mL/min/g and 1.2 mL/min/g, respectively.
In data set [1], `O=S(=O)(Cc1ccccc1)c1sc2ncccc2c1-c1ccc(Cl)cc1` returned an inhibition of 25%.
As for `N#Cc1cc(F)cc(S(=O)(=O)c2sc3ncc(N)cc3c2-c2cnccc2F)c1`, the IC50 in data set [4] came to 18 nM. The compound further gave a Ki in data set [5] of 15.2 nM. In addition, the CLH came to 0.6 mL/min/g in data set [2] and 0.7 mL/min/g in data set [3].
Take `CS(=O)(=O)c1ccc(-c2c(S(=O)(=O)c3ccc(Cl)cc3)sc3ncccc23)cc1`: the values for the CLH in data set [2] and in data set [3] were 0.4 mL/min/g and 2.4 mL/min/g, respectively. In data set [1], this compound came in with an inhibition of 13%.
Take `N#Cc1cc(F)cc(S(=O)(=O)c2sc3ncc(N)cc3c2-c2cc(F)cc(F)c2)c1`: the IC50 in data set [4] came out at 6.1 nM. In addition, affinity in data set [5] was put at a Ki of 2.4 nM. The figures for the CLH in data set [2] and in data set [3] were 0.8 mL/min/g and 1.04 mL/min/g, respectively.
In the case of `CC1CCN(S(=O)(=O)c2sc3ncccc3c2-c2ccc(Cl)cc2)CC1`, in data set [1], the inhibition came to 39%.
On to `N#Cc1cc(F)cc(S(=O)(=O)c2sc3nc(F)ccc3c2-c2ccc(F)cc2)c1`, for which, in data set [4], the IC50 was found to be 14 nM. This compound had an inhibition constant Ki in data set [5] of 2.8 nM. Also, the CLH in data set [2] was 3.5 mL/min/g; in data set [3], 2 mL/min/g.
Regarding `O=S(=O)(c1ccc(Cl)cc1)c1sc2nc(O)ccc2c1-c1ccc(Cl)cc1`, the IC50 in data set [4] is 338 nM. In data set [5], this compound registered an inhibition constant (Ki) of 60 nM. The values for the CLH in data set [2] and in data set [3] were 0.04 mL/min/g and 0.9 mL/min/g, respectively.
The like results for `N#Cc1cccc(S(=O)(=O)c2sc3nc(O)ccc3c2-c2ccc(Cl)cc2)c1` were, in that order, 46 nM, 39 nM, 0.4 mL/min/g and 1.1 mL/min/g.
The matching figures for `N#Cc1cccc(S(=O)(=O)c2sc3ncccc3c2-c2ccc(Cl)cc2)c1`: 30 nM, 4.1 nM, 2.4 mL/min/g and 12.8 mL/min/g.

Source of the values: ChEMBL document CHEMBL3400086, “Thieno[2,3-b]pyridines as negative allosteric modulators of metabotropic GluR5 receptors: Lead optimization” (Bioorg Med Chem Lett, 2015).
